According to the NIST ThermoML archive (doi:10.1016/j.tca.2013.07.012):

Assay: xn = mol fraction of the nth substance listed
Conditions: 101 kPa, Liquid, Vibrating tube method

OCC(O)CO [glycerol] + O
Conditions | mass density [kg/m3]
274.15 K, x1 = 0.00209 | 1002.52
274.15 K, x1 = 0.00439 | 1005.4
274.15 K, x1 = 0.0051 | 1006.27
274.15 K, x1 = 0.00657 | 1008.08
274.15 K, x1 = 0.01072 | 1013.09
274.15 K, x1 = 0.01633 | 1019.67
275.15 K, x1 = 0.00209 | 1002.55
275.15 K, x1 = 0.00439 | 1005.42
275.15 K, x1 = 0.0051 | 1006.29
275.15 K, x1 = 0.00657 | 1008.09
275.15 K, x1 = 0.01072 | 1013.08
275.15 K, x1 = 0.01633 | 1019.63
276.15 K, x1 = 0.00209 | 1002.56
276.15 K, x1 = 0.00439 | 1005.42
276.15 K, x1 = 0.0051 | 1006.29
276.15 K, x1 = 0.00657 | 1008.08
276.15 K, x1 = 0.01072 | 1013.06
276.15 K, x1 = 0.01633 | 1019.58
277.15 K, x1 = 0.00209 | 1002.56
277.15 K, x1 = 0.00439 | 1005.41
277.15 K, x1 = 0.0051 | 1006.27
277.15 K, x1 = 0.00657 | 1008.06
277.15 K, x1 = 0.01072 | 1013.02
277.15 K, x1 = 0.01633 | 1019.51
278.15 K, x1 = 0.00209 | 1002.54
278.15 K, x1 = 0.00439 | 1005.38
278.15 K, x1 = 0.0051 | 1006.24
278.15 K, x1 = 0.00657 | 1008.02
278.15 K, x1 = 0.01072 | 1012.95
278.15 K, x1 = 0.01633 | 1019.43
278.15 K, x1 = 0.03504 | 1039.54
278.15 K, x1 = 0.05086 | 1054.94
278.15 K, x1 = 0.06775 | 1069.92
278.15 K, x1 = 0.1127 | 1103.61
278.15 K, x1 = 0.1559 | 1129.3
278.15 K, x1 = 0.206 | 1153.22
278.15 K, x1 = 0.256 | 1172.3
278.15 K, x1 = 0.3311 | 1194.33
278.15 K, x1 = 0.4012 | 1210
278.15 K, x1 = 0.4907 | 1225.46
278.15 K, x1 = 0.5828 | 1237.72
278.15 K, x1 = 0.6857 | 1248.63
278.15 K, x1 = 0.7494 | 1254.28
278.15 K, x1 = 0.8101 | 1259.12
278.15 K, x1 = 0.8528 | 1262.2
278.15 K, x1 = 0.882 | 1264.21
278.15 K, x1 = 0.9143 | 1266.2
278.15 K, x1 = 0.9408 | 1267.71
278.15 K, x1 = 0.9578 | 1268.67
278.15 K, x1 = 0.9792 | 1269.86
278.15 K, x1 = 0.9895 | 1270.39
278.15 K, x1 = 1 | 1270.87
279.15 K, x1 = 0.00209 | 1002.51
279.15 K, x1 = 0.00439 | 1005.34
279.15 K, x1 = 0.0051 | 1006.19
279.15 K, x1 = 0.00657 | 1007.97
279.15 K, x1 = 0.01072 | 1012.88
279.15 K, x1 = 0.01633 | 1019.34
280.15 K, x1 = 0.00209 | 1002.46
280.15 K, x1 = 0.00439 | 1005.28
280.15 K, x1 = 0.0051 | 1006.13
280.15 K, x1 = 0.00657 | 1007.91
280.15 K, x1 = 0.01072 | 1012.8
280.15 K, x1 = 0.01633 | 1019.23
281.15 K, x1 = 0.00209 | 1002.4
281.15 K, x1 = 0.00439 | 1005.21
281.15 K, x1 = 0.0051 | 1006.06
281.15 K, x1 = 0.00657 | 1007.82
281.15 K, x1 = 0.01072 | 1012.7
281.15 K, x1 = 0.01633 | 1019.12
282.15 K, x1 = 0.00209 | 1002.33
282.15 K, x1 = 0.00439 | 1005.13
282.15 K, x1 = 0.0051 | 1005.97
282.15 K, x1 = 0.00657 | 1007.73
282.15 K, x1 = 0.01072 | 1012.6
282.15 K, x1 = 0.01633 | 1018.99
283.15 K, x1 = 0.00209 | 1002.24
283.15 K, x1 = 0.00439 | 1005.03
283.15 K, x1 = 0.0051 | 1005.87
283.15 K, x1 = 0.00657 | 1007.62
283.15 K, x1 = 0.01072 | 1012.47
283.15 K, x1 = 0.01633 | 1018.85
288.15 K, x1 = 0.00209 | 1001.6
288.15 K, x1 = 0.00439 | 1004.35
288.15 K, x1 = 0.0051 | 1005.18
288.15 K, x1 = 0.00657 | 1006.91
288.15 K, x1 = 0.01072 | 1011.69
288.15 K, x1 = 0.01633 | 1017.97
288.15 K, x1 = 0.03504 | 1037.45
288.15 K, x1 = 0.05086 | 1052.38
288.15 K, x1 = 0.06775 | 1066.9
288.15 K, x1 = 0.1127 | 1099.65
288.15 K, x1 = 0.1559 | 1124.77
288.15 K, x1 = 0.206 | 1148.15
288.15 K, x1 = 0.256 | 1166.85
288.15 K, x1 = 0.3311 | 1188.67
288.15 K, x1 = 0.4012 | 1204.31
288.15 K, x1 = 0.4907 | 1219.67
288.15 K, x1 = 0.5828 | 1231.79
288.15 K, x1 = 0.6857 | 1242.54
288.15 K, x1 = 0.7494 | 1248.04
288.15 K, x1 = 0.8101 | 1252.82
288.15 K, x1 = 0.8528 | 1255.81
288.15 K, x1 = 0.882 | 1257.79
288.15 K, x1 = 0.9143 | 1259.78
288.15 K, x1 = 0.9408 | 1261.27
288.15 K, x1 = 0.9578 | 1262.21
288.15 K, x1 = 0.9792 | 1263.39
288.15 K, x1 = 0.9895 | 1263.91
288.15 K, x1 = 1 | 1264.4
293.15 K, x1 = 0.00209 | 1000.68
293.15 K, x1 = 0.00439 | 1003.39
293.15 K, x1 = 0.0051 | 1004.21
293.15 K, x1 = 0.00657 | 1005.92
293.15 K, x1 = 0.01072 | 1010.64
293.15 K, x1 = 0.01633 | 1016.84
293.15 K, x1 = 0.03504 | 1036.06
293.15 K, x1 = 0.05086 | 1050.82
293.15 K, x1 = 0.06775 | 1065.15
293.15 K, x1 = 0.1127 | 1097.5
293.15 K, x1 = 0.1559 | 1122.35
293.15 K, x1 = 0.206 | 1145.51
293.15 K, x1 = 0.256 | 1164.09
293.15 K, x1 = 0.3311 | 1185.75
293.15 K, x1 = 0.4012 | 1201.28
293.15 K, x1 = 0.4907 | 1216.63
293.15 K, x1 = 0.5828 | 1228.62
293.15 K, x1 = 0.6857 | 1239.29
293.15 K, x1 = 0.7494 | 1244.78
293.15 K, x1 = 0.8101 | 1249.51
293.15 K, x1 = 0.8528 | 1252.47
293.15 K, x1 = 0.882 | 1254.43
293.15 K, x1 = 0.9143 | 1256.38
293.15 K, x1 = 0.9408 | 1257.87
293.15 K, x1 = 0.9578 | 1258.81
293.15 K, x1 = 0.9792 | 1259.97
293.15 K, x1 = 0.9895 | 1260.49
293.15 K, x1 = 1 | 1260.99
298.15 K, x1 = 0.00209 | 999.49
